The test system of one assay is 454973-116-R2-J3-PDC spheroids, viability, % test/control. Briefly: Anticancer human tumor 454973-116-R2-J3-PDC patient-derived pancreatic carcinoma cell line growth inhibition [GQUAD]. As to conditions: second compound 0.316 µM; first compound 1 µM; active compounds read low; spheroids with HUVEC and MSC. Put shortly:
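Multi-cell-type spheroids of tumor cells with HUVEC and mesenchymal stem cells, treated with drug combinations. Concentrations descend in half-log steps from near clinical Cmax, or from 10 microM where Cmax is unknown; viability read-out.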
`CC1COCCN1c1cc(-c2ccnn2C)c2ccnc(-c3ccn[nH]3)c2n1` (configuration not stated) + Cc1[nH]c2ccc(F)cc2c1-c1nc2c3cccnc3c3ncccc3c2[nH]1: the viability, T/C was 20.6%.
On to `CC1COCCN1c1cc(C2(O)CC3CCC(C2)O3)c2cnn(-c3ccn[nH]3)c2n1` (configuration not stated) + Cc1[nH]c2ccc(F)cc2c1-c1nc2c3cccnc3c3ncccc3c2[nH]1, for which the viability, T/C is 20%.
For `CC1COCCN1c1cc(C2(S(C)(=N)=O)CC2)nc(-c2ccnc3[nH]ccc23)n1` (configuration not stated) + Cc1[nH]c2ccc(F)cc2c1-c1nc2c3cccnc3c3ncccc3c2[nH]1, the viability, T/C was 103%.
On to `COc1ccc([C@@H](O)c2cc(-c3ncnc4cc(N5CCOCC5)ccc34)c(F)cc2Cl)nn1` + Cc1[nH]c2ccc(F)cc2c1-c1nc2c3cccnc3c3ncccc3c2[nH]1, for which the viability, T/C was 91.5%.

The assay is the same for the next values; noted with them: second compound 0.316 µM; first compound 3.16 µM; active compounds read low; spheroids with HUVEC and MSC.
With `CC1COCCN1c1cc(-c2ccnn2C)c2ccnc(-c3ccn[nH]3)c2n1` (configuration not stated) + Cc1[nH]c2ccc(F)cc2c1-c1nc2c3cccnc3c3ncccc3c2[nH]1, the viability, T/C was 23.4%.
For `CC1COCCN1c1cc(C2(O)CC3CCC(C2)O3)c2cnn(-c3ccn[nH]3)c2n1` (configuration not stated) + Cc1[nH]c2ccc(F)cc2c1-c1nc2c3cccnc3c3ncccc3c2[nH]1, the viability, T/C was 21.6%.
`CC1COCCN1c1cc(C2(S(C)(=N)=O)CC2)nc(-c2ccnc3[nH]ccc23)n1` (configuration not stated) + Cc1[nH]c2ccc(F)cc2c1-c1nc2c3cccnc3c3ncccc3c2[nH]1: the viability, T/C is 64.8%.
Still for that read-out and setting: the result for `COc1ccc([C@@H](O)c2cc(-c3ncnc4cc(N5CCOCC5)ccc34)c(F)cc2Cl)nn1` + Cc1[nH]c2ccc(F)cc2c1-c1nc2c3cccnc3c3ncccc3c2[nH]1 reads 65.9%.

Still in this assay, the particulars now being: second compound 0.316 µM; first compound 10 µM; active compounds read low; spheroids with HUVEC and MSC.
With `CC1COCCN1c1cc(-c2ccnn2C)c2ccnc(-c3ccn[nH]3)c2n1` (configuration not stated) + Cc1[nH]c2ccc(F)cc2c1-c1nc2c3cccnc3c3ncccc3c2[nH]1, the viability, T/C is 21.9%.
The same measure, in the same setting: the value for `CC1COCCN1c1cc(C2(O)CC3CCC(C2)O3)c2cnn(-c3ccn[nH]3)c2n1` (configuration not stated) + Cc1[nH]c2ccc(F)cc2c1-c1nc2c3cccnc3c3ncccc3c2[nH]1 was 13.5%.
Take `CC1COCCN1c1cc(C2(S(C)(=N)=O)CC2)nc(-c2ccnc3[nH]ccc23)n1` (configuration not stated) + Cc1[nH]c2ccc(F)cc2c1-c1nc2c3cccnc3c3ncccc3c2[nH]1: the viability, T/C is 28.7%.
Consider `COc1ccc([C@@H](O)c2cc(-c3ncnc4cc(N5CCOCC5)ccc34)c(F)cc2Cl)nn1` + Cc1[nH]c2ccc(F)cc2c1-c1nc2c3cccnc3c3ncccc3c2[nH]1, for which the viability, T/C was 53.5%.

Staying with this assay, now noted: second compound 1 µM; first compound 0.0316 µM; active compounds read low; spheroids with HUVEC and MSC.
Consider `CC1COCCN1c1cc(-c2ccnn2C)c2ccnc(-c3ccn[nH]3)c2n1` (configuration not stated) + Cc1[nH]c2ccc(F)cc2c1-c1nc2c3cccnc3c3ncccc3c2[nH]1, for which the viability, T/C is 87%.
`CC1COCCN1c1cc(C2(O)CC3CCC(C2)O3)c2cnn(-c3ccn[nH]3)c2n1` (configuration not stated) + Cc1[nH]c2ccc(F)cc2c1-c1nc2c3cccnc3c3ncccc3c2[nH]1: the viability, T/C is 93.5%.
Take `CC1COCCN1c1cc(C2(S(C)(=N)=O)CC2)nc(-c2ccnc3[nH]ccc23)n1` (configuration not stated) + Cc1[nH]c2ccc(F)cc2c1-c1nc2c3cccnc3c3ncccc3c2[nH]1: the viability, T/C was 106%.
Take `COc1ccc([C@@H](O)c2cc(-c3ncnc4cc(N5CCOCC5)ccc34)c(F)cc2Cl)nn1` + Cc1[nH]c2ccc(F)cc2c1-c1nc2c3cccnc3c3ncccc3c2[nH]1: the viability, T/C is 98.2%.

Still in this assay, the particulars now being: second compound 1 µM; first compound 0.1 µM; active compounds read low; spheroids with HUVEC and MSC.
In the case of `CC1COCCN1c1cc(-c2ccnn2C)c2ccnc(-c3ccn[nH]3)c2n1` (configuration not stated) + Cc1[nH]c2ccc(F)cc2c1-c1nc2c3cccnc3c3ncccc3c2[nH]1, the viability, T/C was 62%.
Take `CC1COCCN1c1cc(C2(O)CC3CCC(C2)O3)c2cnn(-c3ccn[nH]3)c2n1` (configuration not stated) + Cc1[nH]c2ccc(F)cc2c1-c1nc2c3cccnc3c3ncccc3c2[nH]1: the viability, T/C is 58.1%.
Take `CC1COCCN1c1cc(C2(S(C)(=N)=O)CC2)nc(-c2ccnc3[nH]ccc23)n1` (configuration not stated) + Cc1[nH]c2ccc(F)cc2c1-c1nc2c3cccnc3c3ncccc3c2[nH]1: the viability, T/C is 104%.
Take `COc1ccc([C@@H](O)c2cc(-c3ncnc4cc(N5CCOCC5)ccc34)c(F)cc2Cl)nn1` + Cc1[nH]c2ccc(F)cc2c1-c1nc2c3cccnc3c3ncccc3c2[nH]1: the viability, T/C is 97.3%.

Still in this assay, the particulars now being: second compound 1 µM; first compound 0.316 µM; active compounds read low; spheroids with HUVEC and MSC.
Consider `CC1COCCN1c1cc(-c2ccnn2C)c2ccnc(-c3ccn[nH]3)c2n1` (configuration not stated) + Cc1[nH]c2ccc(F)cc2c1-c1nc2c3cccnc3c3ncccc3c2[nH]1, for which the viability, T/C is 32.2%.
On the same count and under the same terms, the result for `CC1COCCN1c1cc(C2(O)CC3CCC(C2)O3)c2cnn(-c3ccn[nH]3)c2n1` (configuration not stated) + Cc1[nH]c2ccc(F)cc2c1-c1nc2c3cccnc3c3ncccc3c2[nH]1 reads 30.6%; that for `CC1COCCN1c1cc(C2(S(C)(=N)=O)CC2)nc(-c2ccnc3[nH]ccc23)n1` (configuration not stated) + Cc1[nH]c2ccc(F)cc2c1-c1nc2c3cccnc3c3ncccc3c2[nH]1, 109%.
On to `COc1ccc([C@@H](O)c2cc(-c3ncnc4cc(N5CCOCC5)ccc34)c(F)cc2Cl)nn1` + Cc1[nH]c2ccc(F)cc2c1-c1nc2c3cccnc3c3ncccc3c2[nH]1, for which the viability, T/C is 96.2%.

Staying with this assay, now noted: second compound 1 µM; first compound 1 µM; active compounds read low; spheroids with HUVEC and MSC.
For the molecule `CC1COCCN1c1cc(-c2ccnn2C)c2ccnc(-c3ccn[nH]3)c2n1` (configuration not stated) + Cc1[nH]c2ccc(F)cc2c1-c1nc2c3cccnc3c3ncccc3c2[nH]1, the viability, T/C is 18.7%.
As to `CC1COCCN1c1cc(C2(O)CC3CCC(C2)O3)c2cnn(-c3ccn[nH]3)c2n1` (configuration not stated) + Cc1[nH]c2ccc(F)cc2c1-c1nc2c3cccnc3c3ncccc3c2[nH]1, the viability, T/C is 19.9%.
For the molecule `CC1COCCN1c1cc(C2(S(C)(=N)=O)CC2)nc(-c2ccnc3[nH]ccc23)n1` (configuration not stated) + Cc1[nH]c2ccc(F)cc2c1-c1nc2c3cccnc3c3ncccc3c2[nH]1, the viability, T/C was 108%.
Consider `COc1ccc([C@@H](O)c2cc(-c3ncnc4cc(N5CCOCC5)ccc34)c(F)cc2Cl)nn1` + Cc1[nH]c2ccc(F)cc2c1-c1nc2c3cccnc3c3ncccc3c2[nH]1, for which the viability, T/C is 75.8%.

The assay is the same for the next values; noted with them: second compound 1 µM; first compound 3.16 µM; active compounds read low; spheroids with HUVEC and MSC.
Regarding `CC1COCCN1c1cc(-c2ccnn2C)c2ccnc(-c3ccn[nH]3)c2n1` (configuration not stated) + Cc1[nH]c2ccc(F)cc2c1-c1nc2c3cccnc3c3ncccc3c2[nH]1, the viability, T/C was 20.3%.
Turning to `CC1COCCN1c1cc(C2(O)CC3CCC(C2)O3)c2cnn(-c3ccn[nH]3)c2n1` (configuration not stated) + Cc1[nH]c2ccc(F)cc2c1-c1nc2c3cccnc3c3ncccc3c2[nH]1, the viability, T/C is 21.8%.
For `CC1COCCN1c1cc(C2(S(C)(=N)=O)CC2)nc(-c2ccnc3[nH]ccc23)n1` (configuration not stated) + Cc1[nH]c2ccc(F)cc2c1-c1nc2c3cccnc3c3ncccc3c2[nH]1, the viability, T/C was 72.6%.
`COc1ccc([C@@H](O)c2cc(-c3ncnc4cc(N5CCOCC5)ccc34)c(F)cc2Cl)nn1` + Cc1[nH]c2ccc(F)cc2c1-c1nc2c3cccnc3c3ncccc3c2[nH]1: the viability, T/C is 70.6%.

Still in this assay, the particulars now being: second compound 1 µM; first compound 10 µM; active compounds read low; spheroids with HUVEC and MSC.
Take `CC1COCCN1c1cc(-c2ccnn2C)c2ccnc(-c3ccn[nH]3)c2n1` (configuration not stated) + Cc1[nH]c2ccc(F)cc2c1-c1nc2c3cccnc3c3ncccc3c2[nH]1: the viability, T/C is 22.8%.
Turning to `CC1COCCN1c1cc(C2(O)CC3CCC(C2)O3)c2cnn(-c3ccn[nH]3)c2n1` (configuration not stated) + Cc1[nH]c2ccc(F)cc2c1-c1nc2c3cccnc3c3ncccc3c2[nH]1, the viability, T/C was 13.2%.
For the molecule `CC1COCCN1c1cc(C2(S(C)(=N)=O)CC2)nc(-c2ccnc3[nH]ccc23)n1` (configuration not stated) + Cc1[nH]c2ccc(F)cc2c1-c1nc2c3cccnc3c3ncccc3c2[nH]1, the viability, T/C is 36.5%.
For the molecule `COc1ccc([C@@H](O)c2cc(-c3ncnc4cc(N5CCOCC5)ccc34)c(F)cc2Cl)nn1` + Cc1[nH]c2ccc(F)cc2c1-c1nc2c3cccnc3c3ncccc3c2[nH]1, the viability, T/C is 48.5%.

The assay is the same for the next values; noted with them: second compound 3.16 µM; first compound 0.0316 µM; active compounds read low; spheroids with HUVEC and MSC.
Turning to `CC1COCCN1c1cc(-c2ccnn2C)c2ccnc(-c3ccn[nH]3)c2n1` (configuration not stated) + Cc1[nH]c2ccc(F)cc2c1-c1nc2c3cccnc3c3ncccc3c2[nH]1, the viability, T/C is 92.2%.
On the same count and under the same terms, the value for `CC1COCCN1c1cc(C2(O)CC3CCC(C2)O3)c2cnn(-c3ccn[nH]3)c2n1` (configuration not stated) + Cc1[nH]c2ccc(F)cc2c1-c1nc2c3cccnc3c3ncccc3c2[nH]1 was 88.5%; that for `CC1COCCN1c1cc(C2(S(C)(=N)=O)CC2)nc(-c2ccnc3[nH]ccc23)n1` (configuration not stated) + Cc1[nH]c2ccc(F)cc2c1-c1nc2c3cccnc3c3ncccc3c2[nH]1 was 98.3%.
The same measure, in the same setting: the value for `COc1ccc([C@@H](O)c2cc(-c3ncnc4cc(N5CCOCC5)ccc34)c(F)cc2Cl)nn1` + Cc1[nH]c2ccc(F)cc2c1-c1nc2c3cccnc3c3ncccc3c2[nH]1 was 94.8%.

The assay is the same for the next values; noted with them: second compound 3.16 µM; first compound 0.1 µM; active compounds read low; spheroids with HUVEC and MSC.
Regarding `CC1COCCN1c1cc(-c2ccnn2C)c2ccnc(-c3ccn[nH]3)c2n1` (configuration not stated) + Cc1[nH]c2ccc(F)cc2c1-c1nc2c3cccnc3c3ncccc3c2[nH]1, the viability, T/C was 52.9%.
For `CC1COCCN1c1cc(C2(O)CC3CCC(C2)O3)c2cnn(-c3ccn[nH]3)c2n1` (configuration not stated) + Cc1[nH]c2ccc(F)cc2c1-c1nc2c3cccnc3c3ncccc3c2[nH]1, the viability, T/C is 58.3%.

One may read the viability, T/C as the result in the treated group divided by that in the control group, in per cent.
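Also: spheroids exposed to compounds for seven days; 100% = DMSO vehicle control viability.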
